{
  "source": "ChEMBL document CHEMBL4190379",
  "about": "(Bioorg Med Chem Lett, 2018)",
  "key": {"[1]": {"target": "T1, ATPase family AAA domain-containing protein 2 (Homo sapiens) (UniProt Q6PL18)", "T1 sequence (whole entry)": "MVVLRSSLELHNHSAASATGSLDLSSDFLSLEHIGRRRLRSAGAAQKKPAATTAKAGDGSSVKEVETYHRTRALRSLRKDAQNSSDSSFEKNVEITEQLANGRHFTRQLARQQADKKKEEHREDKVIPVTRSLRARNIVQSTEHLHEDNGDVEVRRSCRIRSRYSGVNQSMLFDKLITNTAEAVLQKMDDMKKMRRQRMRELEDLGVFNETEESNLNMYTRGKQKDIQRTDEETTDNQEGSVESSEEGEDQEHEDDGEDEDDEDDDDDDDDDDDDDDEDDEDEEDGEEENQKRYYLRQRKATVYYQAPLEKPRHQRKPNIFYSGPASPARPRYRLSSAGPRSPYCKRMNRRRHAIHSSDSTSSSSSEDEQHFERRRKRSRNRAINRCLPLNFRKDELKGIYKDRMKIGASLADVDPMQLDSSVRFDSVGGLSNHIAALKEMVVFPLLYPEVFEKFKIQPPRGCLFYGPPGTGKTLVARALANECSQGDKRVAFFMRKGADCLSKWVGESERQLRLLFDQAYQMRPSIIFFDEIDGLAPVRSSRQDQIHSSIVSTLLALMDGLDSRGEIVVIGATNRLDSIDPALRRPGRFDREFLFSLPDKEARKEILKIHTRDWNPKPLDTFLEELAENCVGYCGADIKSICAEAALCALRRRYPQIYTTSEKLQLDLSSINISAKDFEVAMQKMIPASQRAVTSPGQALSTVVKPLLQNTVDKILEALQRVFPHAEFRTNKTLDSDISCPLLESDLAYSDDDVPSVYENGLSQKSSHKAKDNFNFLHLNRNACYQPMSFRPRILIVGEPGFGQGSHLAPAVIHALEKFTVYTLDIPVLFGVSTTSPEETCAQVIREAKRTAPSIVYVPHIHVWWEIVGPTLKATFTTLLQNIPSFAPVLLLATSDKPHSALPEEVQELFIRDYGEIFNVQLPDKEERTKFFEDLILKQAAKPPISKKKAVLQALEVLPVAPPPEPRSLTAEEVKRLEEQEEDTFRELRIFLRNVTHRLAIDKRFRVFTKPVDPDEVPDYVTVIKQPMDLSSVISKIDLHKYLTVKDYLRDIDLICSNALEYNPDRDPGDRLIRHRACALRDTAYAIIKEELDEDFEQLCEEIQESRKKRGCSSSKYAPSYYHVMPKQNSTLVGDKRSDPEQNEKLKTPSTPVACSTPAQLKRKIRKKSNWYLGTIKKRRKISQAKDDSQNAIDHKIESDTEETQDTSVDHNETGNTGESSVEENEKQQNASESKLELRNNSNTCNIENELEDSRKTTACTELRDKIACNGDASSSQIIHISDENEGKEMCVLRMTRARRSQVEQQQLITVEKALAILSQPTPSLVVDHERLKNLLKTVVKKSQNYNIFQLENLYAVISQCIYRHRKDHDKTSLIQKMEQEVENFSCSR", "experiment": "Binding affinity to human ATAD2A expressed in bacterial system assessed as remaining binding level at 1 uM by BROMOscan assay relative to control"}, "[2]": {"experiment": "Permeability of the compound by PAMPA method", "format": "ADME", "settings": "read-out: permeability"}, "[3]": {"target": "Bromodomain-containing protein 4 (Homo sapiens, UniProt O60885)", "experiment": "Binding affinity to His-tagged BRD4 bromodomain 1 to 2 (K57 to K550 amino acids) (unknown origin) using Alexa647-labeled BET-inhibitor as fluorescent probe by bromodomain TR-FRET binding assay", "format": "single protein"}, "[4]": {"target": "T2, ATPase family AAA domain-containing protein 2B (Homo sapiens) (UniProt Q9ULI0)", "T2 sequence (whole entry)": "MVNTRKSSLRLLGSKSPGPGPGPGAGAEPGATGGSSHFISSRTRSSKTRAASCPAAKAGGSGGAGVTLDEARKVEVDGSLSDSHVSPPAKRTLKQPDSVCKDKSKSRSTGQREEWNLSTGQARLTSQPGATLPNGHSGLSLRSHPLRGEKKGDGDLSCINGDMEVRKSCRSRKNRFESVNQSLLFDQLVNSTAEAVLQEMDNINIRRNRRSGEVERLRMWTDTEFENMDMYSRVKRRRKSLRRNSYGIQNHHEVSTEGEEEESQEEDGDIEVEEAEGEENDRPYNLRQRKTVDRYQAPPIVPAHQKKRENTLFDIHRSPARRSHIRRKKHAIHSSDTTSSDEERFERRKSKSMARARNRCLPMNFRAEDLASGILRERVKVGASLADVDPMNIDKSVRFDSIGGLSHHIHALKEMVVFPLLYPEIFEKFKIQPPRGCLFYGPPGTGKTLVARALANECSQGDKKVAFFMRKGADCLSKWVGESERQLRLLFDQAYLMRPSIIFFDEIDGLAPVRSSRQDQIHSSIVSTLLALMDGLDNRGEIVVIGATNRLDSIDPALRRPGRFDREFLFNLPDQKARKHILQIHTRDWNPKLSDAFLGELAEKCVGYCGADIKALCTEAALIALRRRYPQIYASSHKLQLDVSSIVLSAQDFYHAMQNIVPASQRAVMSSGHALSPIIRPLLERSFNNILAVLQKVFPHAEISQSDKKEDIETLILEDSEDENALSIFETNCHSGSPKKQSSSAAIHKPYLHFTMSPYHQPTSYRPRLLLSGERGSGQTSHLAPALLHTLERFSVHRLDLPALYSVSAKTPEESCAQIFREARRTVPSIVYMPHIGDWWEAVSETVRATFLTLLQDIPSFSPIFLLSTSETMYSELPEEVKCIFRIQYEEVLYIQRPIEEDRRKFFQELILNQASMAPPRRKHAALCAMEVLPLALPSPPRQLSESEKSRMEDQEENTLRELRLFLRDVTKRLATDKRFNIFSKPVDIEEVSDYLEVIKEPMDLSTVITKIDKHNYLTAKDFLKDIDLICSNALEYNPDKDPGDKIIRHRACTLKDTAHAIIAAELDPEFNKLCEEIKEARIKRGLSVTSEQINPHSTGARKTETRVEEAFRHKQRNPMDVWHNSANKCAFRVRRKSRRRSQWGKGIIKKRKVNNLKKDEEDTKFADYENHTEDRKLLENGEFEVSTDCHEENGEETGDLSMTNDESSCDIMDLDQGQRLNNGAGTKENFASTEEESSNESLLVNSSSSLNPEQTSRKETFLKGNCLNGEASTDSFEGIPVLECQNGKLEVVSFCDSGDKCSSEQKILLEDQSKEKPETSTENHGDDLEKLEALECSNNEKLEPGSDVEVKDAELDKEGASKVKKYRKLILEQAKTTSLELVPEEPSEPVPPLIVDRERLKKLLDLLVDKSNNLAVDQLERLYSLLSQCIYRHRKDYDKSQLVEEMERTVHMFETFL", "experiment": "Binding affinity to human ATAD2B expressed in bacterial system assessed as remaining binding level at 1 uM by BROMOscan assay relative to control"}, "MX1": {"test_system": "MX1", "experiment": "Antiproliferative activity against human MX1 cells incubated for 72 hrs by cell-titer Glo assay", "format": "functional, cell-based", "settings": "MX1, 72 h"}},
  "data": [
    {"smiles": "Cn1cc2c3c(c[nH]c(=O)c31)-c1cc(CS(C)(=O)=O)ccc1N(c1ccc(F)cc1)C2", "values": [
      {"measurement": "Activity", "setting": "[1]", "value": 100, "unit": "%"},
      {"measurement": "Papp", "setting": "[2]", "value": 5.1, "unit": "×10⁻⁶ cm/s"},
      {"measurement": "Ki", "setting": "[3]", "value": 3.3, "unit": "nM"},
      {"measurement": "Activity", "setting": "[4]", "value": 76, "unit": "%"},
      {"measurement": "EC50", "setting": "MX1", "value": 1.4, "unit": "nM"}
    ]},
    {"smiles": "Cn1cc2c3c(c[nH]c3c1=O)CN(c1ccc(F)cc1F)c1ccc(CS(C)(=O)=O)cc1-2", "values": [
      {"measurement": "Activity", "setting": "[1]", "value": 4.6, "unit": "%"},
      {"measurement": "Papp", "setting": "[2]", "value": 13, "unit": "×10⁻⁶ cm/s"},
      {"measurement": "Ki", "setting": "[3]", "value": 0.87, "unit": "nM"},
      {"measurement": "Activity", "setting": "[4]", "value": 60, "unit": "%"},
      {"measurement": "EC50", "setting": "MX1", "value": 3.4, "unit": "nM"}
    ]},
    {"smiles": "Cn1cc2c3c(c[nH]c3c1=O)CN(c1ccccn1)c1ccc(CS(C)(=O)=O)cc1-2", "values": [
      {"measurement": "Activity", "setting": "[1]", "value": 68, "unit": "%"},
      {"measurement": "Papp", "setting": "[2]", "value": 6, "unit": "×10⁻⁶ cm/s"},
      {"measurement": "Ki", "setting": "[3]", "value": 0.62, "unit": "nM"},
      {"measurement": "Activity", "setting": "[4]", "value": 33, "unit": "%"},
      {"measurement": "EC50", "setting": "MX1", "value": 1.3, "unit": "nM"}
    ]}
  ]
}
